These results are taken from ChEMBL document CHEMBL1140693, “4,5-diarylisoxazole Hsp90 chaperone inhibitors: potential therapeutic agents for the treatment of cancer” (J Med Chem, 2008).

One assay concerns HCT-116. Briefly: cells. The conditions noted are these: Homo sapiens, HCT-116, 24 h.
Another assay addresses Heat shock protein HSP90 (Homo sapiens, UniProt P07900+P08238).

Some results are limits rather than exact numbers.

Description for HCT-116: Growth inhibition of human HCT116 cells after 24 hrs by SRB assay
Description for Heat shock protein HSP90: Displacement of fluorescent labelled VER-00051001 from human Hsp90-beta by FP assay

What is called GI50 is the concentration giving 50% growth inhibition. Low readings indicate more potent growth inhibition, high ones less potent growth inhibition. In general, IC50 refers to the concentration that gives 50% inhibition. A low value points to higher potency. Regarding `CCNC(=O)c1noc(-c2cc(CCc3ccccc3)c(O)cc2O)c1-c1ccc(CN2CCOCC2)cc1`, the GI50 in the assay with HCT-116 is 0.029 µM. Moreover, the IC50 on Heat shock protein HSP90 worked out at 0.032 µM.

In the case of `CCNC(=O)c1[nH]nc(-c2cc(Cl)c(O)cc2O)c1-c1ccc(CNC(=O)C[C@@H]2CCCN2)cc1`, in the assay with HCT-116, the GI50 was 0.275 µM. The IC50 against Heat shock protein HSP90 is 0.057 µM. The matching figures for `CCNC(=O)c1noc(-c2cc(CCc3ccc(F)cc3)c(O)cc2O)c1-c1ccc(CN2CCOCC2)cc1`: 0.039 µM and 0.02 µM. In turn, `CCNC(=O)c1noc(-c2cc(CC)c(O)cc2O)c1-c1ccc(CN(CC)CC)cc1` displayed a GI50 with HCT-116 of 0.041 µM. Moreover, the IC50 on Heat shock protein HSP90 amounted to 0.013 µM.

`Oc1cc(O)c(-c2n[nH]cc2N2CCN(Cc3ccccc3)CC2)cc1Cl`: in the assay on HCT-116, the GI50 came to 6.5 µM. This compound came in with an IC50 on Heat shock protein HSP90 of 0.6 µM. As to `CCNC(=O)c1noc(-c2cc(Cl)c(O)cc2O)c1-c1ccc(CN2CCN(C)CC2)cc1`, the GI50 in the assay on HCT-116 is 0.125 µM. Besides, the IC50 against Heat shock protein HSP90 is 0.039 µM. The like results for `CCNC(=O)c1[nH]nc(-c2cc(Cl)c(O)cc2O)c1-c1cccc(CN2CCC(CO)CC2)c1` were, in that order, > 80 µM and 2.63 µM. The matching figures for `CCNC(=O)c1noc(-c2cc(-c3ccc(F)cc3)c(O)cc2O)c1-c1ccc(CN2CCCCC2)cc1`: 0.035 µM and 0.036 µM. The like results for `CC(=O)c1ccc(CNC(=O)c2c[nH]nc2-c2cc(Cl)c(O)cc2O)cc1` were, in that order, 11.6 µM and 0.258 µM.

Compound `CCNC(=O)c1[nH]nc(-c2cc(Cl)c(O)cc2O)c1-c1ccc(CN2CCS(=O)(=O)CC2)cc1` displayed a GI50 in the assay on HCT-116 of 0.826 µM. The IC50 at Heat shock protein HSP90 stood at 0.027 µM.

For `CCNC(=O)c1noc(-c2cc(CC)c(OC)cc2O)c1-c1ccc(CN2CCOCC2)cc1`, the GI50 with HCT-116 is 0.08 µM. At Heat shock protein HSP90, this compound yielded an IC50 of 0.015 µM. In the case of `CCNC(=O)c1[nH]nc(-c2cc(Cl)c(O)cc2O)c1-c1cccc(CN(C)CCO)c1`, in the assay with HCT-116, the GI50 is 9.24 µM. The IC50 against Heat shock protein HSP90 came to 0.914 µM. The matching figures for `CCNC(=O)c1noc(-c2cc(CC)c(OC)cc2OC)c1-c1ccc(CN2CCOCC2)cc1`: 32 µM and 1.56 µM.

On to `CCNC(=O)c1[nH]nc(-c2cc(Cl)c(O)cc2O)c1-c1cccc(CN2CCN(C(C)=O)CC2)c1`, for which, in the assay on HCT-116, the GI50 was found to be 32.7 µM. This compound also displayed an IC50 at Heat shock protein HSP90 of 1.29 µM. Consider `CCNC(=O)c1[nH]nc(-c2cc(Cl)c(O)cc2O)c1-c1cccc(CNCc2ccccc2C(F)(F)F)c1`, for which growth in the assay with HCT-116 was halved (GI50) at 3.11 µM. The compound further yielded an IC50 against Heat shock protein HSP90 of 0.231 µM. The like results for `CCNC(=O)c1noc(-c2cc(CC)c(O)cc2O)c1-c1ccc(CN2CCOCC2)cc1` were, in that order, 0.025 µM and 0.029 µM. The matching figures for `CCNC(=O)c1noc(-c2cc(Cl)c(O)cc2O)c1-c1cccc(N2CCOCC2)c1`: 0.634 µM and 0.127 µM. For `CCNC(=O)c1noc(-c2cc(Cl)c(O)cc2O)c1-c1ccc(CN2CCC(O)CC2)cc1`, halving of growth in the assay on HCT-116 (GI50) required 1.29 µM. The IC50 at Heat shock protein HSP90 was found to be 0.028 µM.

As to `CCNC(=O)c1noc(-c2cc(Cl)c(O)cc2O)c1-c1ccc(CN2CCCC2)cc1`, halving of growth in the assay with HCT-116 (GI50) required 0.118 µM. Besides, the IC50 against Heat shock protein HSP90 worked out at 0.039 µM. On to `CCc1cc(-c2[nH]nc(C)c2-c2ccc3c(c2)OCCO3)c(O)cc1O`, for which, in the assay on HCT-116, halving of growth (GI50) required 5.8 µM. Regarding `CCNC(=O)c1noc(-c2cc(Cl)c(O)cc2O)c1-c1ccc(CN2CCS(=O)(=O)CC2)cc1`, the GI50 with HCT-116 was determined as 0.47 µM. This compound returned an IC50 on Heat shock protein HSP90 of 0.021 µM. The like results for `CCNC(=O)c1noc(-c2cc(Cl)c(O)cc2O)c1-c1ccc(CN(C)C)cc1` were, in that order, 0.069 µM and 0.018 µM. The matching figures for `CCNC(=O)c1[nH]nc(-c2cc(Cl)c(O)cc2O)c1-c1cccc(CN2CCC[C@H]2CO)c1`: 11.4 µM and 1.66 µM. The compound `CCNC(=O)c1noc(-c2cc(CC)c(O)cc2OC)c1-c1ccc(CN2CCOCC2)cc1` registered a GI50 with HCT-116 of 2.15 µM. The compound also registered an IC50 against Heat shock protein HSP90 of 0.54 µM. The like results for `CCNC(=O)c1[nH]nc(-c2cc(Cl)c(O)cc2O)c1-c1ccc(CN(CCO)CCO)cc1` were, in that order, 7.8 µM and 0.142 µM. In the assay with HCT-116, `CCNC(=O)c1[nH]nc(-c2cc(Cl)c(O)cc2O)c1-c1cccc(CNCCOC)c1` yielded a GI50 of 12.9 µM. The compound also gave an IC50 at Heat shock protein HSP90 of 0.728 µM. The like results for `CCNC(=O)c1noc(-c2cc(-c3ccccc3F)c(O)cc2O)c1-c1ccc(CN2CCOCC2)cc1` were, in that order, 0.087 µM and 0.039 µM.

In the assay on HCT-116, `CCNC(=O)c1noc(-c2cc(Cl)c(O)cc2O)c1-c1ccc(CN(CC)CC)cc1` returned a GI50 of 0.056 µM. The same compound registered an IC50 on Heat shock protein HSP90 of 0.064 µM. The matching figures for `CCNC(=O)c1noc(-c2cc(Cl)c(O)cc2O)c1-c1ccc(CN2CCCCC2)cc1`: 0.061 µM and 0.019 µM. The like results for `CCNC(=O)c1[nH]nc(-c2cc(Cl)c(O)cc2O)c1-c1cccc(CNCCN2CCOCC2)c1` were, in that order, 12.5 µM and 0.431 µM. For `CCNC(=O)c1noc(-c2cc(Cl)c(O)cc2O)c1-c1ccc(CN2CCOCC2)cc1`, in the assay with HCT-116, the GI50 worked out at 0.083 µM. Turning to `C=CCNC1=C2C[C@@H](C)C[C@H](OC)[C@H](O)[C@@H](C)/C=C(\C)[C@H](OC(N)=O)[C@@H](OC)/C=C\C=C(/C)C(=O)NC(=CC1=O)C2=O` [TANESPIMYCIN], the GI50 in the assay with HCT-116 came to 0.16 µM.

`CCNC(=O)c1noc(-c2cc(CCc3ccc(F)cc3)c(O)cc2O)c1-c1ccc(CN2CCCCC2)cc1` had a concentration for 50% growth inhibition (GI50) in the assay with HCT-116 of 0.029 µM. The IC50 against Heat shock protein HSP90 was determined as 0.026 µM. The matching figures for `CCNC(=O)c1noc(-c2cc(Cl)c(O)cc2O)c1-c1cccc(N2CCN(C)CC2)c1`: 2.78 µM and 0.343 µM.

`CCNC(=O)c1[nH]nc(-c2cc(Cl)c(O)cc2O)c1-c1cccc(CNCCN2CCCCC2)c1` had a GI50 in the assay on HCT-116 of 25.1 µM. The compound further gave an IC50 at Heat shock protein HSP90 of 1 µM.

`CCNC(=O)c1noc(-c2cc(CCc3cccc(F)c3)c(O)cc2O)c1-c1ccc(CN2CCOCC2)cc1` had a GI50 with HCT-116 of 0.058 µM. Moreover, the IC50 against Heat shock protein HSP90 worked out at 0.026 µM. The matching figures for `CCNC(=O)c1noc(-c2cc(C(C)(C)C)c(O)cc2O)c1-c1ccc(CN2CCCCC2)cc1`: 0.065 µM and 0.011 µM. With `CCNC(=O)c1[nH]nc(-c2cc(Cl)c(O)cc2O)c1-c1ccc(CN(CC)CC)cc1`, in the assay with HCT-116, it took 0.315 µM to inhibit growth by half (GI50). At Heat shock protein HSP90, the IC50 is 0.146 µM. Compound `CCNC(=O)c1noc(-c2cc(C(C)C)c(O)cc2O)c1-c1ccc(CN(CC)CC)cc1` showed a GI50 in the assay on HCT-116 of 0.006 µM. Further, the IC50 at Heat shock protein HSP90 was found to be 0.006 µM. Compound `CCNC(=O)c1noc(-c2cc(-c3ccccc3)c(O)cc2O)c1-c1ccc(CN2CCOCC2)cc1` returned a GI50 with HCT-116 of 0.152 µM. In addition, at Heat shock protein HSP90, the IC50 is 0.022 µM. The like results for `CCNC(=O)c1noc(-c2cc(-c3ccccc3C)c(O)cc2O)c1-c1ccc(CN2CCCCC2)cc1` were, in that order, 0.114 µM and 0.014 µM.

The compound `CCNC(=O)c1noc(-c2cc(Cl)c(O)cc2O)c1-c1ccc(CNCCS(C)(=O)=O)cc1` registered a GI50 in the assay on HCT-116 of 1.98 µM. In addition, at Heat shock protein HSP90, the IC50 came to 0.014 µM. The like results for `CCNC(=O)c1[nH]nc(-c2cc(Cl)c(O)cc2O)c1-c1ccc(CNC(=O)C2CCCN(C)C2)cc1` (stereo not given) were, in that order, 3.47 µM and 0.115 µM. The compound `CCNC(=O)c1[nH]nc(-c2cc(Cl)c(O)cc2O)c1-c1ccc(CN2CCOCC2)cc1` showed a GI50 in the assay on HCT-116 of 0.29 µM. This compound also displayed an IC50 on Heat shock protein HSP90 of 0.037 µM.
